Where “and” joins values, the source holds several entries; their conditions need not be identical. Equal entries are not always repeated. Where two headings read alike, the source gives them in different places.
Columns and labels:
[1] = Metabolism stability test (Test Example 2-2); type: in vitro ADME; settings: pooled human liver microsomes 0.5 mg protein/mL, 37° C., 30 minutes, 1 mmol/L NADPH (oxidative reaction), compound concentration 0.5 μmol/L
Experimental: Test Example 2-2: Metabolism Stability Test
Using commercially available pooled human liver microsomes, a compound of the present invention is reacted for a constant time, and a remaining rate is calculated by comparing a reacted sample and an unreacted sample, thereby, a degree of metabolism in liver is assessed.
A reaction is performed (oxidative reaction) at 37° C. for 0 minute or 30 minutes in the presence of 1 mmol/L NADPH in 0.2 mL of a buffer (50 mmol/L Tris-HCl pH 7.4, 150 mmol/L potassium chloride, 10 mmol/L magnesium chloride) containing 0.5 mg protein/mL of human liver microsomes. After the reaction, 70 μL of the reaction solution is added to 140 μL of a methanol/acetonitrile=1/1 (v/v), mixed and centrifuged at 3000 rpm for 15 minutes. The compound of the present invention in the centrifuged supernatant is quantified by LC/MS/MS or solid-phase extraction (SPE)/MS. The ratio of the amount of the compound after the reaction, with respect to the amount of the compound at 0 minutes of the reaction defined as 100%, is shown as the residual rate. Hydrolysis reaction is performed in the absence of NADPH, and glucuronidation reaction is performed in the presence of 5 mmol/L UDP-glucuronic acid instead of NADPH. Then, the same operation is carried out. The dilution concentration or the dilution solvent are changed as necessary.
The compounds of the present invention were tested essentially as described above.

Human GLP-1 receptor = target: T1, Human GLP-1 receptor (Homo sapiens, UniProt P43220); assay: Measurement of GLP-1 receptor agonist activity (cAMP assay); type: cell-based
T1 construct: expressed in transfected cells
T1 sequence (P43220 24-463): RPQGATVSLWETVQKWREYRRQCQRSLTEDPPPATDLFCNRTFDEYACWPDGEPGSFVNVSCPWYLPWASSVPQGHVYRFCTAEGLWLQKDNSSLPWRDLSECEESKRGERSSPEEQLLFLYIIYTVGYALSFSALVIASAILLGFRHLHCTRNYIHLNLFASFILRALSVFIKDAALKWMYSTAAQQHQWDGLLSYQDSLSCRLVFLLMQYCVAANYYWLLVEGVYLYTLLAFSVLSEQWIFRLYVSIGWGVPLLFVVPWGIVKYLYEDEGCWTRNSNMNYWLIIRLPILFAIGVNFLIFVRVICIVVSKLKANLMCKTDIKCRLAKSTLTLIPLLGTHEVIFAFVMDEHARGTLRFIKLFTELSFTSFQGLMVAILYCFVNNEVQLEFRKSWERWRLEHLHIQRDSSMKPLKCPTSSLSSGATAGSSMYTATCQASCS
Outline: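 hGLP-1R/CHO-K1 cells in HBSS with 0.1% BSA, 20 mM HEPES, 0.1 mM IBMX and 0.2 mM RO20-1724 exposed to compound plus forskolin (400 μM stock) for 1 h at 37 °C. Intracellular cAMP read by HTRF (cAMP-d2/anti-cAMP cryptate, 1 h at room temperature).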

[2] = CHO-K1, hGLP-1R/CHO-K1 cells, cAMP, 100% = human GLP-1 (7-36) at 2 nM, 0% = DMSO only, read-out: Emax(%)
[3] = hGLP-1R/CHO-K1 cells, cAMP increase, 37° C. 1 hour
[4] = CHO-K1, maximum effect, cAMP increase in GLP-1 R/CHO-K1 cells, 2 nM human GLP-1 (7-36) = 100%, DMSO only = 0%, read-out: Emax
[5] = cAMP increase in GLP-1 R/CHO-K1 cells, 2 nM human GLP-1 (7-36) = 100%, DMSO only = 0%

SMILES	residual rate of the compound [1]	Emax (Human GLP-1 receptor; [2])	EC50 (Human GLP-1 receptor; [3])	Emax (Human GLP-1 receptor; [4])	EC50 (Human GLP-1 receptor; [5])	Emax (Human GLP-1 receptor; maximum effect, cAMP increase in GLP-1 R/CHO-K1 cells, 2 nM human GLP-1 (7-36) = 100%, DMSO only = 0%)
O=C(O)c1cc(F)c2nc(CN3CCc4cc(C(F)(F)F)c(OCc5ccc(Cl)cc5F)cc4C3)n(C[C@@H]3CCO3)c2c1 [Compound I-033]	87.1%	109%	1.49 nM			
C[C@H]1c2cc(OCc3ccc(Cl)cc3F)c(C(F)(F)F)cc2CCN1Cc1nc2ccc(C(=O)O)cc2n1C[C@@H]1CCO1 [Compound I-035]	87.1%	129%	0.298 nM			
O=C(O)c1ccc2nc(Cc3ccc4nc(C(F)(F)F)c(OCc5ccc(Cl)cc5F)nc4c3F)n(C[C@@H]3CCO3)c2c1 [Compound I-109]	99.6%	114%	0.472 nM			
C[C@H]1c2nc(OCc3ccc(Cl)cc3F)c(C(F)(F)F)cc2CCN1Cc1nc2ccc(C(=O)O)cc2n1C[C@@H]1CCO1 [Compound I-145]	94.0%	108%	0.0938 nM			
COc1cc(Cl)ccc1COc1nc2c(cc1C(F)(F)F)CCN(Cc1nc3c(F)cc(C(=O)O)cc3n1C[C@@H]1CCO1)[C@H]2C [Compound I-367]				107%	0.0214 nM	
C[C@H]1c2nc(OCc3c(F)cc(F)cc3F)c(C(F)(F)F)cc2CCN1Cc1nc2c(F)cc(C(=O)O)cc2n1C[C@@H]1CCO1 [Compound I-371]				122%	0.0495 nM	
COc1cc(C(=O)O)cc2c1nc(CN1CCc3cc(C(F)(F)F)c(OCc4ccc(C)cc4)nc3[C@@H]1C)n2C[C@@H]1CCO1 [Compound I-373]				122%	0.0194 nM	
COc1cc(C(=O)O)cc2c1nc(CN1CCc3cc(C(F)(F)F)c(OCc4ccc(Cl)cc4)nc3[C@@H]1C)n2C[C@@H]1CCO1 [Compound I-374]				100%	0.0208 nM	
COc1cc(C(=O)O)cc2c1nc(CN1CCc3cc(C(F)(F)F)c(OCc4ccc(C5CC5)cc4)nc3[C@@H]1C)n2C[C@@H]1CCO1 [Compound I-375]				103%	0.0814 nM	
COc1cc(Cl)ccc1COc1nc2c(cc1C(F)(F)F)CCN(Cc1nc3c(OC)cc(C(=O)O)cc3n1C[C@@H]1CCO1)[C@H]2C [Compound I-376]				106%	0.0152 nM	
COc1cc(C(=O)O)cc2c1nc(CN1CCc3cc(C(F)(F)F)c(OCc4ccc(Cl)cc4Cl)nc3[C@@H]1C)n2C[C@@H]1CCO1 [Compound I-377]				126%	0.0176 nM	
COc1cc(C(=O)O)cc2c1nc(CN1CCc3cc(C(F)(F)F)c(OCc4c(F)cc(Cl)cc4F)nc3[C@@H]1C)n2C[C@@H]1CCO1 [Compound I-379]				96%	0.0121 nM	
O=C(O)c1cc(F)c2nc(CN3CCc4cc(C(F)(F)F)c(OCc5ccc(Cl)cc5)nc4C3)n(C[C@@H]3CCO3)c2c1 [Compound I-380]				108%	0.382 nM	
COc1cc(Cl)ccc1COc1nc2c(cc1C(F)(F)F)CCN(Cc1nc3c(F)cc(C(=O)O)cc3n1C[C@@H]1CCO1)C2 [Compound I-382]				125%	0.159 nM	
O=C(O)c1cc(F)c2nc(CN3CCc4cc(C(F)(F)F)c(OCc5ccc(F)cc5F)nc4C3)n(C[C@@H]3CCO3)c2c1 [Compound I-383]				109%	0.516 nM	
O=C(O)c1cc(F)c2nc(CN3CCc4cc(C(F)(F)F)c(OCc5ccc(Cl)cc5Cl)nc4C3)n(C[C@@H]3CCO3)c2c1 [Compound I-384]				114%	0.126 nM	
O=C(O)c1cc(F)c2nc(CN3CCc4cc(C(F)(F)F)c(OCc5ccc(Cl)cc5F)nc4C3)n(C[C@@H]3CCO3)c2c1 [Compound I-385]				112%		
COc1cc(C(=O)O)cc2c1nc(CN1CCc3cc(C(F)(F)F)c(OCc4ccc(Cl)cc4)nc3C1)n2C[C@@H]1CCO1 [Compound I-386]				112%	0.0877 nM	
COc1cc(C(=O)O)cc2c1nc(CN1CCc3cc(C(F)(F)F)c(OCc4ccc(Cl)cc4Cl)nc3C1)n2C[C@@H]1CCO1 [Compound I-389]				115%	0.05 nM	
COc1cc(C(=O)O)cc2c1nc(CN1CCc3cc(C(F)(F)F)c(OCc4ccc(Cl)cc4F)nc3C1)n2C[C@@H]1CCO1 [Compound I-390]				107%	0.046 nM	
COc1cc(C(=O)O)cc2c1nc(CN1CCc3cc(C(F)(F)F)c(OCc4ccc(Cl)cn4)nc3[C@@H]1C)n2C[C@@H]1CCO1 [Compound I-392]				135%	0.0156 nM	
C[C@H]1c2nc(OCc3ccc(Cl)cc3F)c(I)cc2CCN1Cc1nc2ccc(C(=O)O)cc2n1C[C@@H]1CCO1 [Compound I-393]				121%	0.099 nM	
C[C@H]1c2nc(OCc3ccc(Cl)cc3F)c(C(F)F)cc2CCN1Cc1nc2ccc(C(=O)O)cc2n1C[C@@H]1CCO1 [Compound I-394]				108%	0.0497 nM	
C[C@H]1c2nc(OCc3ccc(Cl)cc3F)ccc2CCN1Cc1nc2ccc(C(=O)O)cc2n1C[C@@H]1CCO1 [Compound I-395]				89.7%	0.618 nM	

Now from value to molecule:

residual rate of the compound [1]	Emax (Human GLP-1 receptor; [2])	EC50 (Human GLP-1 receptor; [3])	Emax (Human GLP-1 receptor; [4])	EC50 (Human GLP-1 receptor; [5])	Emax (Human GLP-1 receptor; maximum effect, cAMP increase in GLP-1 R/CHO-K1 cells, 2 nM human GLP-1 (7-36) = 100%, DMSO only = 0%)	SMILES
96.9%	117%	0.327 nM				C[C@H]1c2cc(OCc3ccc(Cl)cc3F)c(C(F)(F)F)cc2CCN1Cc1nc2ccc(C(=O)O)c(F)c2n1C[C@@H]1CCO1 [Compound I-117]
> 99.9%	97.7%	3.76 nM				C[C@H]1c2cc(OCc3ccc(F)cc3)c(C(F)(F)F)cc2CCN1Cc1nc2ccc(C(=O)O)cc2n1C[C@@H]1CCO1 [Compound I-123]
			120%	0.136 nM and 0.2 nM	102%	C[C@H]1c2nc(OCc3ccccc3Cl)c(C(F)(F)F)cc2CCN1Cc1nc2c(F)cc(C(=O)O)cc2n1C[C@@H]1CCO1 [Compound I-368]
			112%	0.0526 nM		C[C@H]1c2nc(OCc3ccc(F)cc3F)c(C(F)(F)F)cc2CCN1Cc1nc2c(F)cc(C(=O)O)cc2n1C[C@@H]1CCO1 [Compound I-369]
			109%	0.143 nM		C[C@H]1c2nc(OCc3ccc(OC(F)F)cc3F)c(C(F)(F)F)cc2CCN1Cc1nc2c(F)cc(C(=O)O)cc2n1C[C@@H]1CCO1 [Compound I-370]
			117%	0.023 nM		C[C@H]1c2nc(OCc3c(F)cc(Cl)cc3F)c(C(F)(F)F)cc2CCN1Cc1nc2c(F)cc(C(=O)O)cc2n1C[C@@H]1CCO1 [Compound I-372]
			95.3%	0.0146 nM		COc1cc(C(=O)O)cc2c1nc(CN1CCc3cc(C(F)(F)F)c(OCc4cc(F)c(Cl)cc4F)nc3[C@@H]1C)n2C[C@@H]1CCO1 [Compound I-378]
			116%	0.702 nM		Cc1ccc(COc2nc3c(cc2C(F)(F)F)CCN(Cc2nc4c(F)cc(C(=O)O)cc4n2C[C@@H]2CCO2)C3)cc1 [Compound I-381]
			122%	0.178 nM		COc1cc(C(=O)O)cc2c1nc(CN1CCc3cc(C(F)(F)F)c(OCc4ccc(C)cc4)nc3C1)n2C[C@@H]1CCO1 [Compound I-387]
			115%	0.0523 nM		COc1cc(Cl)ccc1COc1nc2c(cc1C(F)(F)F)CCN(Cc1nc3c(OC)cc(C(=O)O)cc3n1C[C@@H]1CCO1)C2 [Compound I-388]
			107%	0.396 nM		C[C@H]1c2nc(OCc3ccc(Cl)cn3)c(C(F)(F)F)cc2CCN1Cc1nc2ccc(C(=O)O)nc2n1C[C@@H]1CCO1 [Compound I-391]

— patent publication US20240217966A1, “PHARMACEUTICAL COMPOSITION CONTAINING GLP-1 RECEPTOR AGONIST HAVING FUSED RING” (Shionogi & Co., Ltd., priority 2021, published 2024)
